Results as given in patent US6355799B1, “Substituted benzene compounds, process for their preparation, and herbicidal and defoliant compositions containing them” (ISK Americas Incorporated, priority 1997, dated 2002).

How the values were obtained:
Assay type in all cases: in vivo
[1] = test system: redroot pigweed (Amaranthus retroflexus, AMARE); test: Pre-emerge test, greenhouse herbicide activity screening; conditions: pre-emerge, rated 14 days after application, 0 = no damage, 100 = complete death
Procedure, shortened: (§1)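 Compounds in acetone were track-sprayed at 187 l/ha, 15–1000 g ai/ha, onto sandy loam pots. Pre-emerge seeds were sown one day before spraying, with surface watering afterwards. Post-emerge plants were at the 2–3 leaf stage and sprayed with 0.25% v/v non-ionic surfactant. Injury was rated 0–100 at 14 days.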

[2] = test system: lambsquarters (Chenopodium album, CHEAL); test: as above; conditions: pre-emerge, rated 14 days after application, 0 = no damage, 100 = complete death
Procedure, shortened: (§2)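 Sandy loam pots; pre-emerge: sown 1 d pre-spray, surface-watered after, then bottom-watered. Post-emerge: sown 8–21 d before, 2–3 leaf stage, + 0.25% v/v NIS, bottom-watered. Acetone, 187 l/ha track spray, 15–1000 g ai/ha. 0–100 injury score, day 14.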

[3] = test system: johnsongrass (Sorghum halepense, SORHA); test: as above; conditions: pre-emerge, rated 14 days after application, 0 = no damage, 100 = complete death
Procedure, shortened: as §2

[4] = test system: velvetleaf (Abutilon theophrasti, ABUTH); test: as above; conditions: pre-emerge, rated 14 days after application, 0 = no damage, 100 = complete death
Procedure, shortened: as §2

[5] = test system: barnyardgrass (Echinochloa crus-galli, ECHCG); test: as above; conditions: pre-emerge, rated 14 days after application, 0 = no damage, 100 = complete death
Procedure, shortened: as §2

[6] = test system: sicklepod (Cassia obtusifolia, CASOB); test: as above; conditions: pre-emerge, rated 14 days after application, 0 = no damage, 100 = complete death
Procedure, shortened: as §2

[7] = test system: ivyleaf morningglory (Ipomoea hederacea, IPOHE); test: as above; conditions: pre-emerge, rated 14 days after application, 0 = no damage, 100 = complete death
Procedure, shortened: as §2

[8] = test system: green foxtail (Setaria viridis, SETVI); test: as above; conditions: pre-emerge, rated 14 days after application, 0 = no damage, 100 = complete death
Procedure, shortened: as §2

[9] = test system: large crabgrass (Digitaria sanguinalis, DIGSA); test: as above; conditions: pre-emerge, rated 14 days after application, 0 = no damage, 100 = complete death
Procedure, shortened: as §2

[10] = test system: field corn (Zea mays L., var. Dekalb 535, CORN); test: Pre-emerge test, crop safety; conditions: pre-emerge, rated 14 days after application, 0 = no damage, 100 = complete death
Procedure, shortened: as §1

[11] = test system: upland rice (Oryza sp., var. Tebonnet, RICE); test: Pre-emerge test, crop safety; conditions: pre-emerge, rated 14 days after application, 0 = no damage, 100 = complete death
Procedure, shortened: as §1

[12] = test system: field corn (Zea mays L., var. Dekalb 535, CORN); test: Post-emerge test, crop safety; conditions: phytotoxicity rating 0-100 (0 no damage, 100 complete death), 14 days after application
Procedure, shortened: as §2

[13] = test system: upland rice (Oryza sp., var. Tebonnet, RICE); test: Post-emerge test, crop safety; conditions: phytotoxicity rating 0-100 (0 no damage, 100 complete death), 14 days after application
Procedure, shortened: as §2

[14] = test system: lambsquarters (Chenopodium album, CHEAL); test: Post-emerge test, greenhouse herbicide activity screening; conditions: phytotoxicity rating 0-100 (0 no damage, 100 complete death), 14 days after application
Procedure, shortened: (§3)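 Visual ratings on a 0-100 scale (0 no damage, 100 all plants dead) were taken at 14 days after treatment. Rates of 15-1000 g ai/ha in acetone, 187 l/ha, were sprayed onto soil one day after planting (pre-emerge) or onto 2-3 leaf plants with 0.25% v/v surfactant (post-emerge).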

[15] = test system: johnsongrass (Sorghum halepense, SORHA); test: as above; conditions: phytotoxicity rating 0-100 (0 no damage, 100 complete death), 14 days after application
Procedure, shortened: as §3

[16] = test system: velvetleaf (Abutilon theophrasti, ABUTH); test: as above; conditions: phytotoxicity rating 0-100 (0 no damage, 100 complete death), 14 days after application
Procedure, shortened: as §3

[17] = test system: barnyardgrass (Echinochloa crus-galli, ECHCG); test: as above; conditions: phytotoxicity rating 0-100 (0 no damage, 100 complete death), 14 days after application
Procedure, shortened: as §3

[18] = test system: sicklepod (Cassia obtusifolia, CASOB); test: as above; conditions: phytotoxicity rating 0-100 (0 no damage, 100 complete death), 14 days after application
Procedure, shortened: as §3

[19] = test system: ivyleaf morningglory (Ipomoea hederacea, IPOHE); test: as above; conditions: phytotoxicity rating 0-100 (0 no damage, 100 complete death), 14 days after application
Procedure, shortened: as §3

[20] = test system: redroot pigweed (Amaranthus retroflexus, AMARE); test: as above; conditions: phytotoxicity rating 0-100 (0 no damage, 100 complete death), 14 days after application
Procedure, shortened: as §3

[21] = test system: green foxtail (Setaria viridis, SETVI); test: as above; conditions: phytotoxicity rating 0-100 (0 no damage, 100 complete death), 14 days after application
Procedure, shortened: as §3

[22] = test system: large crabgrass (Digitaria sanguinalis, DIGSA); test: as above; conditions: phytotoxicity rating 0-100 (0 no damage, 100 complete death), 14 days after application
Procedure, shortened: as §3

Structure (SMILES): CCc1ccc(C(=O)Nc2c(OCC#N)c(Cl)cc(F)c2-n2c(=O)cc(C(F)(F)F)n(C)c2=O)cc1 [2-28]
- Pre-emerge Herbicidal Activity AMARE (phytotoxicity rating, scale 0-100) ([1]; 63 g ai/ha): 100
- Pre-emerge Herbicidal Activity AMARE (phytotoxicity rating, scale 0-100) ([1]; 250 g ai/ha): 100
- Pre-emerge Herbicidal Activity CHEAL (phytotoxicity rating, scale 0-100) ([2]; 63 g ai/ha): 100
- Pre-emerge Herbicidal Activity CHEAL (phytotoxicity rating, scale 0-100) ([2]; 250 g ai/ha): 100
- Pre-emerge Herbicidal Activity SORHA (phytotoxicity rating, scale 0-100) ([3]; 63 g ai/ha): 10
- Pre-emerge Herbicidal Activity SORHA (phytotoxicity rating, scale 0-100) ([3]; 250 g ai/ha): 50
- Pre-emerge Herbicidal Activity ABUTH (phytotoxicity rating, scale 0-100) ([4]; 63 g ai/ha): 100
- Pre-emerge Herbicidal Activity ABUTH (phytotoxicity rating, scale 0-100) ([4]; 250 g ai/ha): 100
- Pre-emerge Herbicidal Activity ECHCG (phytotoxicity rating, scale 0-100) ([5]; 63 g ai/ha): 0
- Pre-emerge Herbicidal Activity ECHCG (phytotoxicity rating, scale 0-100) ([5]; 250 g ai/ha): 20
- Pre-emerge Herbicidal Activity CASOB (phytotoxicity rating, scale 0-100) ([6]; 63 g ai/ha): 5
- Pre-emerge Herbicidal Activity CASOB (phytotoxicity rating, scale 0-100) ([6]; 250 g ai/ha): 100
- Pre-emerge Herbicidal Activity IPOHE (phytotoxicity rating, scale 0-100) ([7]; 63 g ai/ha): 80
- Pre-emerge Herbicidal Activity IPOHE (phytotoxicity rating, scale 0-100) ([7]; 250 g ai/ha): 100
- Pre-emerge Herbicidal Activity SETVI (phytotoxicity rating, scale 0-100) ([8]; 63 g ai/ha): 50
- Pre-emerge Herbicidal Activity SETVI (phytotoxicity rating, scale 0-100) ([8]; 250 g ai/ha): 100
- Pre-emerge Herbicidal Activity DIGSA (phytotoxicity rating, scale 0-100) ([9]; 63 g ai/ha): 50
- Pre-emerge Herbicidal Activity DIGSA (phytotoxicity rating, scale 0-100) ([9]; 250 g ai/ha): 90
- Pre-emerge crop damage CORN (phytotoxicity rating, scale 0-100) ([10]; 63 g ai/ha): 0
- Pre-emerge crop damage CORN (phytotoxicity rating, scale 0-100) ([10]; 250 g ai/ha): 10
- Pre-emerge crop damage RICE (phytotoxicity rating, scale 0-100) ([11]; 63 g ai/ha): 60
- Pre-emerge crop damage RICE (phytotoxicity rating, scale 0-100) ([11]; 250 g ai/ha): 70
- Post-emerge Herbicidal Activity CORN (crop damage) ([12]; 63 g ai/ha): 15
- Post-emerge Herbicidal Activity CORN (crop damage) ([12]; 250 g ai/ha): 25
- Post-emerge Herbicidal Activity RICE (crop damage) ([13]; 63 g ai/ha): 90
- Post-emerge Herbicidal Activity RICE (crop damage) ([13]; 250 g ai/ha): 90
- Post-emerge Herbicidal Activity CHEAL ([14]; 63 g ai/ha): 60
- Post-emerge Herbicidal Activity CHEAL ([14]; 250 g ai/ha): 60
- Post-emerge Herbicidal Activity SORHA ([15]; 63 g ai/ha): 0
- Post-emerge Herbicidal Activity SORHA ([15]; 250 g ai/ha): 0
- Post-emerge Herbicidal Activity ABUTH ([16]; 63 g ai/ha): 100
- Post-emerge Herbicidal Activity ABUTH ([16]; 250 g ai/ha): 100
- Post-emerge Herbicidal Activity ECHCG ([17]; 63 g ai/ha): 0
- Post-emerge Herbicidal Activity ECHCG ([17]; 250 g ai/ha): 0
- Post-emerge Herbicidal Activity CASOB ([18]; 63 g ai/ha): 30
- Post-emerge Herbicidal Activity CASOB ([18]; 250 g ai/ha): 20
- Post-emerge Herbicidal Activity IPOHE ([19]; 63 g ai/ha): 60
- Post-emerge Herbicidal Activity IPOHE ([19]; 250 g ai/ha): 50
- Post-emerge Herbicidal Activity AMARE ([20]; 63 g ai/ha): 100
- Post-emerge Herbicidal Activity AMARE ([20]; 250 g ai/ha): 100
- Post-emerge Herbicidal Activity SETVI ([21]; 63 g ai/ha): 30
- Post-emerge Herbicidal Activity SETVI ([21]; 250 g ai/ha): 30
- Post-emerge Herbicidal Activity DIGSA ([22]; 63 g ai/ha): 0
- Post-emerge Herbicidal Activity DIGSA ([22]; 250 g ai/ha): 0
